The text below walks through data of PMC5434815, “The role of histidines in amyloid β fibril assembly” (Febs Letters, 2017).

Experiment [1] has as its system corresponding immobilised fibrils (fibrillar form of Aβ). As to the kind of experiment: SPR dissociation rate k(off) of Aβ fibrils, slow phase, relative to Aβ1–40 wt. The format is binding. The settings on record: for RD, relative dissociation (k(off) versus Aβ1–40 wt): 150 mM NaCl, 25 °C, after 2 μM monomer injection, slow phase, points before 100 s excluded, one exponential decay, Aβ1–40 wt = 1. The protocol:
(§1) Recombinant variants of Aβ1–40, Aβ1–40 H6A, Aβ1–40 H13A, Aβ1–40 H14A and Aβ1–40 H6A, H13A, H14A were obtained from AlexoTech (Umeå, Sweden). All lyophilised peptides were solubilised in 20 mM NaOH and separated by size‐exclusion chromatography (Superdex 10/300, GE Life Science, Uppsala, Sweden) in PBS with 2 mM EDTA, 5 mM NaOH and 150 mM NaCl. The pH of all purified peptide solutions was adjusted using a stock solution of phosphate or acetate buffer to give a final buffer concentration corresponding to 20 mM phosphate (pH 7.4) or acetate (pH 5.5) and 150 mM NaCl.
(§2) The interaction study between the fibrillar form of Aβ and its monomeric form was performed using a BIAcore® 3000 biosensor (GE Healthcare®, Uppsala, Sweden) equipped with a CM5 sensor chip (GE Healthcare®). First, the fibrillar form of Aβ was immobilised at a density of 3500 response units (RUs) on the dextran layer of the chip using standard amino coupling reagents at pH 4.0. All SPR experiments were performed at 25 °C at a flow rate of 20 μL·min^−1 in either a 20 mM phosphate buffer (pH 7.4) or 20 mM acetate buffer (pH 5.5). All experiments were performed in the presence of 150 mM NaCl, which represents a physiological ion‐strength.
(§3) All sensograms were corrected for nonspecific interactions using a reference surface according to standard procedures 16.
Note that the dissociation phase exposes a biphasic curvature. This is highly representative and frequently observed when performing these kinds of experiments. […] All analyses of decay rates within this work are therefore exclusively focused on the slower second phase of dissociation.
In contrast to the association rate, kon, the rate of dissociation, koff, is independent of the concentration of monomers. Subsequent to probing, the immobilised fibrils with free monomers, the rate of dissociation can be seen as a decrease in the signal over time.
Because the latter part of the curve, representing the slower phase of dissociation (indicated by arrow 3 Fig. 1), strongly dominates the interaction strength, we have exclusively focused on this part, and no points before 100 s were included in the curve. The dissociation curve could then be fitted to a one exponential decay.

For experiment [2] the test system is unchanged. Description: SPR association rate k(on) of Aβ monomers onto immobilised fibrils, relative to Aβ1–40 wt. It is filed as binding. The settings on record: for RA, relative association (k(on) versus Aβ1–40 wt): 150 mM NaCl, 25 °C, 20 μL·min^−1, CM5 chip, fibrils at 3500 RU, end state after 60 s injection, Aβ1–40 wt = 1. The protocol:
as §1, §2
Due to the polymeric nature of amyloid fibrils, the covalent immobilisation on the sensor chip, likely only occurs in minor fraction of the accessible amino groups. This treatment is therefore not anticipated to influence the overall incorporation of monomers in a significant manner. However, the influence from using immobilised fibrils or the dextran layer cannot be fully excluded and should therefore be disclosed.
as §3
Probing free monomeric Aβ against immobilised fibrils using SPR is a frequently used technique for measuring the intrinsic kinetic properties of Aβ polymerisation 11, 14, 17, 18, 19.
Fibrils from recombinant variants of Aβ1–40, Aβ1–40 H6A, Aβ1–40 H13A, Aβ1–40 H14A and Aβ1–40 H6A, H13A, H14A were prepared by prolonged incubation in either PBS (pH 7.4) or acetate buffer pH 5.5 containing 150 mM NaCl. Fibrils immobilised on a CM5 chip were then probed with their monomeric counterpart at different concentrations of Aβ monomers and analysed by SPR. Samples were injected for exactly 60 s and the maximal value at the end state of each injection (indicated by arrow 1 in Fig. 1A) was plotted as a function of the monomeric concentration, Fig. 2. This generates an association rate at each point of measurement. A guideline is given in the figures to illustrate the linearity.
By comparing the rate between the different Aβ variants, it is possible to determine relative differences in k(on).

The test system of experiment [3] is immobilised Aβ fibrils / fibrillar end. As to the kind of experiment: Fibril stability (KD, RD/RA, potentiation factor) from SPR association and dissociation. The settings on record: 25 °C, relative to Aβ1–40 wt. The format is binding. The protocol:
as §2, §3
While a simple interaction between, for example, a receptor and ligand can easily be determined through saturation experiments, this cannot be done with polymers since they, per definition, cannot be saturated.
This problem can, however, be circumvented by defining the concentration of free monomers where the fibrils are at steady state, i.e. the concentration of free monomers where neither association nor dissociation can be detected. We have previously shown that the KD for Aβ1–40 wt at neutral pH is around 100 nM and around 1 nM at pH 5.5 11, 13. The KD at neutral pH has also been investigated by Hasegawa and co‐workers 14 with similar results. All figures used here are therefore given as relative values to the KD for Aβ1–40 wt corresponding to 100 nM at neutral pH and 1 nM at pH 5.5.
Multiplying the relative RD/RA with the KD for Aβ 1–40 wt will then give the KD for the histidine derivatives.

The target of experiment [4] is Amyloid β 1–40 H6A, H13A, H14A. Description: SPR; preformed fibrils immobilised on a CM5 chip by amine coupling (3500 RU), probed with monomers of the same variant; monomer onto fibril end; 25 °C, 20 μL/min, 20 mM phosphate pH 7.4, 150 mM NaCl; slow phase of dissociation only; KD = RD/RA x KD of Aβ1-40 wt (100 nM, from earlier work).
In experiment [5] the target is Amyloid β 1–40 H6A, H13A, H14A. Description: SPR; preformed fibrils immobilised on a CM5 chip by amine coupling (3500 RU), probed with monomers of the same variant; monomer onto fibril end; 25 °C, 20 μL/min, 20 mM acetate pH 5.5, 150 mM NaCl; slow phase of dissociation only; KD = RD/RA x KD of Aβ1-40 wt (1 nM, from earlier work). In general terms: SPR reads the build-up and loss of mass on a sensor chip optically.

Experiment [6] concerns the target Amyloid β 1–40 H14A. Description: SPR; preformed fibrils immobilised on a CM5 chip by amine coupling (3500 RU), probed with monomers of the same variant; monomer onto fibril end; 25 °C, 20 μL/min, 20 mM phosphate pH 7.4, 150 mM NaCl; slow phase of dissociation only; KD = RD/RA x KD of Aβ1-40 wt (100 nM, from earlier work).
Experiment [7] addresses Amyloid β 1–40 H14A. As to the kind of experiment: SPR; preformed fibrils immobilised on a CM5 chip by amine coupling (3500 RU), probed with monomers of the same variant; monomer onto fibril end; 25 °C, 20 μL/min, 20 mM acetate pH 5.5, 150 mM NaCl; slow phase of dissociation only; KD = RD/RA x KD of Aβ1-40 wt (1 nM, from earlier work).
In experiment [8] the target is immobilised Aβ fibrils / fibrillar end. The settings on record: cited from earlier work. The text has this:
Table 1 Relative change of association and dissociation rates of Aβ1–40 wt and the His‐Ala Aβ variants, and the potentiation of Aβ fibril formation as a function of lowering the pH. RA, Relative association; RD, Relative dissociation; PnF, Potentiation factor KD(pH7.4)/KD(pH5.5) | column: pH 7.4 / KD (nM); pH 5.5 / KD (nM) || The formation of Aβ fibrils requires an initial nucleation event, and fibril elongation involves the addition of monomers to an existing fibril. […] The KD for Aβ1–40 can be as much as 120 times lower at pH 4.5 than pH 7.4. […] It is therefore of interest to elucidate the stabilising factors associated with fibril stability and the potentiating ... || (+ 3 further places)

The target in experiment [9] is Amyloid β 1–40 H13A. As to the kind of experiment: SPR; preformed fibrils immobilised on a CM5 chip by amine coupling (3500 RU), probed with monomers of the same variant; monomer onto fibril end; 25 °C, 20 μL/min, 20 mM phosphate pH 7.4, 150 mM NaCl; slow phase of dissociation only; KD = RD/RA x KD of Aβ1-40 wt (100 nM, from earlier work).
For experiment [10], the target named is Amyloid β 1–40 H13A. As to the kind of experiment: SPR; preformed fibrils immobilised on a CM5 chip by amine coupling (3500 RU), probed with monomers of the same variant; monomer onto fibril end; 25 °C, 20 μL/min, 20 mM acetate pH 5.5, 150 mM NaCl; slow phase of dissociation only; KD = RD/RA x KD of Aβ1-40 wt (1 nM, from earlier work).

Values joined by “and” are separate entries in the source; they are usually repeats but may differ in a detail not shown here. Equal values may be shown once. Read-outs that look alike come from different tables or passages of the source.

In the case of Aβ1–40 H13A, the “RD, relative dissociation (k(off) versus Aβ1–40 wt)” value (“RD, relative dissociation” below) in [1] (pH 5.5, 20 mM acetate) is given as 2.13; in [1] (pH 7.4, 20 mM phosphate), 2.22. In addition, the “RA, relative association (k(on) versus Aβ1–40 wt)” value (shortened to “RA, relative association”) in [2] (pH 5.5, 20 mM acetate) amounted to 1.01; in experiment [2] (pH 7.4, 20 mM phosphate), 0.31. The RD/RA stood at 2.11 in [3] (pH 5.5, 150 mM NaCl) and 7.16 in experiment [3] (pH 7.4, 150 mM NaCl).

Turning to Aβ1–40 H14A, the “RD, relative dissociation” value in [1] (pH 5.5, 20 mM acetate) is recorded as 2.22; in experiment [1] (pH 7.4, 20 mM phosphate), 2.70. Further, the “RA, relative association” value in experiment [2] (pH 5.5, 20 mM acetate) is 1.01; in experiment [2] (pH 7.4, 20 mM phosphate), 0.34. Moreover, the RD/RA in experiment [3] (pH 7.4, 150 mM NaCl) was found to be 7.94.

Turning to “Aβ1–40 H6A, H13A, H14A: recombinant Aβ1–40 variant where all three histidines have been exchanged for alanine (DAEFRADSGYEVAAQKLVFFAEDVGSNKGAIIGLMVGGVV; Amyloid-beta protein 40; UniProt P05067 672-711, looked up, variant H6A H13A H14A)”, the “RD, relative dissociation” value came to 8.33 in experiment [1] (pH 5.5, 20 mM acetate) and 2.70 in experiment [1] (pH 7.4, 20 mM phosphate). The “RA, relative association” value in [2] (pH 5.5, 20 mM acetate) was 1.57; in [2] (pH 7.4, 20 mM phosphate), 0.22. The RD/RA in experiment [3] (pH 5.5, 150 mM NaCl) was 5.31; in experiment [3] (pH 7.4, 150 mM NaCl), 12.27.

In experiment [4], “Amyloid β 1–40 H6A, H13A, H14A (peptide)” gave a Kd of 1.23 µM, an RA (association rate relative to Aβ1-40 wt) of 0.22 and an RD (dissociation rate relative to Aβ1-40 wt) of 2.7. In experiment [5], the Kd was 0.00531 µM, the RA (association rate relative to Aβ1-40 wt) amounted to 1.57 and the RD (dissociation rate relative to Aβ1-40 wt) worked out at 8.33.

Amyloid β 1–40 H14A (peptide): in the experiment with Amyloid β 1–40 H14A [6], the Kd turned out to be 0.794 µM, the RA (association rate relative to Aβ1-40 wt) was 0.34 and the RD (dissociation rate relative to Aβ1-40 wt) came out at 2.7. In the experiment with Amyloid β 1–40 H14A [7], this substance had a Kd of 0.00219 µM, an RA (association rate relative to Aβ1-40 wt) of 1.01 and an RD (dissociation rate relative to Aβ1-40 wt) of 2.22.

Regarding Aβ1–40 H6A, the “RD, relative dissociation” value was determined as 2.78 in experiment [1] (pH 5.5, 20 mM acetate) and 1.92 in experiment [1] (pH 7.4, 20 mM phosphate). For the same substance, the “RA, relative association” value in experiment [2] (pH 5.5, 20 mM acetate) is listed as 1.94; in [2] (pH 7.4, 20 mM phosphate) it was 0.45. Moreover, the RD/RA in [3] (pH 5.5, 150 mM NaCl) is recorded as 1.43; in [3] (pH 7.4, 150 mM NaCl), 4.27.

Take “Aβ1–42: one of the two dominant forms of amyloid β”: the “critical concentration (KD), in words” value in experiment [8] (neutral pH, compared with Aβ1–40) was “slightly lower”.

In the experiment with Amyloid β 1–40 H13A [9], Amyloid β 1–40 H13A (peptide) had a Kd of 0.716 µM, an RA (association rate relative to Aβ1-40 wt) of 0.31 and an RD (dissociation rate relative to Aβ1-40 wt) of 2.22. Also, in the experiment with Amyloid β 1–40 H13A [10], the Kd was 0.00211 µM, the RA (association rate relative to Aβ1-40 wt) was 1.01 and the RD (dissociation rate relative to Aβ1-40 wt) amounted to 2.13.

As to “Aβ1–40 wt: wild‐type amyloid β 1–40, recombinant, obtained from AlexoTech (Umeå, Sweden) [reference compound]”, the “RD, relative dissociation” value was 1 in experiment [1] (pH 5.5, 20 mM acetate) and 1 in [1] (pH 7.4, 20 mM phosphate). For the same substance, the “stabilisation / dissociation on lowering the pH, in words” value in experiment [1] (pH 7.4 to 5.5) is “significantly stabilised by the decrease in pH”. Moreover, the “RA, relative association” value in experiment [2] (pH 5.5, 20 mM acetate) is recorded as 1; in experiment [2] (pH 7.4, 20 mM phosphate), 1. Besides, in experiment [2] (pH 5.5 versus pH 7.4), the “rate of association, in words” value is listed as “much faster rate of association”. Further, the RD/RA in experiment [3] (pH 5.5, 150 mM NaCl) is recorded as 1; in experiment [3] (pH 7.4, 150 mM NaCl), 1. Moreover, the Kd is ~0.1 µM and 0.1 µM in [8] (neutral pH (pH 7.4), reference value for the relative KDs, read-out: KD (critical concentration)); around 0.1 µM in experiment [8] (neutral pH, read-out: critical concentration (KD)); ~0.001 µM and 0.001 µM in experiment [8] (pH 5.5, reference value for the relative KDs, read-out: KD). For the same substance, the “decrease of KD at pH 4.5 versus pH 7.4 (times lower)” value in experiment [8] (pH 4.5 vs pH 7.4, "as much as") is at most 120 times.
